Laboratory results as given in patent publication US10647723B2, “Thiochromene type compound and use thereof” (SOGANG UNIVERSITY RESEARCH FOUNDATION, priority 2015, dated 2020).

Assays:
[1] = UV-Vis absorption spectrum; format: physicochemical; details: compared to compounds 1 and 2; FIG. 5
[2] = Solubility comparison: cloud point on adding water to a DMSO solution; format: physicochemical; details: upon dissolution in DMSO

melting point	absorbance at 355 nm [1]	water added at which a cloud point formed [2]	Structure (SMILES)
90 to 96 °C (dec.)	high absorbance	30%	Cn1c2c(c3ccccc31)C(SCCC(=O)ON1C(=O)CCC1=O)Sc1ccccc1-2 (stereo not drawn) [3a, 2,5-Dioxopyrrolidin-1-yl 3-((11-methyl-6,11-dihydrothiochromeno[4,3-b]indol-6-yl)thio)propanoate]
82 to 87 °C (dec.)	–	–	CCn1c2c(c3ccccc31)C(SCCC(=O)ON1C(=O)CCC1=O)Sc1ccccc1-2 (stereo not drawn) [3b, 2,5-Dioxopyrrolidin-1-yl 3-((11-ethyl-6,11-dihydrothiochromeno[4,3-b]indol-6-yl)thio)propanoate]
77 to 82 °C (dec.)	–	–	CCCn1c2c(c3ccccc31)C(SCCC(=O)ON1C(=O)CCC1=O)Sc1ccccc1-2 (stereo not drawn) [3c, 2,5-Dioxopyrrolidin-1-yl 3-((11-propyl-6,11-dihydrothiochromeno[4,3-b]indol-6-yl)thio)propanoate]
76 to 81 °C (dec.)	–	–	CCCCn1c2c(c3ccccc31)C(SCCC(=O)ON1C(=O)CCC1=O)Sc1ccccc1-2 (stereo not drawn) [3d, 2,5-Dioxopyrrolidin-1-yl 3-((11-butyl-6, 11-dihydrothiochromeno[4,3-b]indol-6-yl)thio)propanoate]
